Measured values from patent publication US10645928B2, “Pesticidally active polycyclic derivatives with sulfur containing substituents” (Syngenta Participations AG, priority 2014, dated 2020).

What was measured:
Type in all cases: in vivo
[1] = tested on: Spodoptera littoralis (Egyptian Cotton Leaf Worm); test: Example B16: Spodoptera littoralis, sprayed cotton leaf discs, mortality; conditions: foliar, 72 h, application rate of 200 ppm, L1 larvae, 3 days after infestation
Protocol: (§1) Cotton leaf discs were placed onto agar in 24-well microtiter plates and sprayed with aqueous test solutions prepared from 10,000 ppm DMSO stock solutions. After drying the leaf discs were infested with five L1 larvae. The samples were assessed for mortality 3 days after infestation.

[2] = tested on: Spodoptera littoralis (Egyptian Cotton Leaf Worm); test: Example B14: Spodoptera littoralis, sprayed cotton leaf discs, anti-feeding effect; conditions: foliar, 72 h, application rate of 200 ppm, L1 larvae, 3 days after infestation
Protocol: as §1, with “anti-feeding effect in comparison to untreated samples” for “mortality”, “infestation. Control of Spodoptera littoralis by a test sample is given when the anti-feedant effect is higher than the untreated sample.” for “infestation.”

[3] = tested on: Aedes aegypti (Yellow Fever Mosquito); test: Example B23: Aedes aegypti, dry deposits in 12 well tissue culture plates, control; conditions: application rate of 200 ppm in ethanol, adult females, after 48 h and/or 24 h
Protocol: Test solutions, at an application rate of 200 ppm in ethanol, were applied to 12 well tissue culture plates. Once the deposits were dry, five, two to five day old adult female Aedes aegypti were added to each well, and sustained with a 10% sucrose solution in a cotton wool plug. Assessment of knockdown was made one hour after introduction, and mortality was assessed at 24 and 48 hours after introduction.

[4] = tested on: Diabrotica balteata (Corn Root Worm); test: Example B3: Diabrotica balteata, sprayed maize sprouts, mortality; conditions: 96 h, application rate of 200 ppm, L2 larvae, 4 days after infestation
Protocol: (§2) Maize sprouts placed onto an agar layer in 24-well microtiter plates were treated with aqueous test solutions prepared from 10,000 ppm DMSO stock solutions by spraying. After drying, the plates were infested with L2 larvae (6 to 10 per well). The samples were assessed for mortality 4 days after infestation.

[5] = tested on: Spodoptera littoralis (Egyptian Cotton Leaf Worm); test: Example B18: Spodoptera littoralis, compound in agar absorbed by lettuce roots, mortality, anti-feedant effect and growth inhibition; conditions: 144 h, test rate of 12.5 ppm, uptake by lettuce roots, Spodoptera eggs, 6 days after infestation, read-out: effect in at least one of the three categories (mortality, anti-feeding, or growth inhibition)
Description: Test compounds were applied by pipette from 10,000 ppm DMSO stock solutions into 24-well plates and mixed with agar. Lettuce seeds were placed onto the agar and the multi well plate was closed by another plate which contained also agar. After 7 days the compound was absorbed by the roots and the lettuce grew into the lid plate. The lettuce leaves were then cut off into the lid plate. Spodoptera eggs were pipetted through a plastic stencil onto a humid gel blotting paper and the lid plate was closed with it. The samples were assessed for mortality, anti-feedant effect and growth inhibition in comparison to untreated samples 6 days after infestation.

[6] = tested on: Euschistus heros (Neotropical Brown Stink Bug); test: Example B5: Euschistus heros, sprayed soybean leaves, mortality; conditions: 120 h, application rate of 200 ppm, N2 nymphs, 5 days after infestation
Protocol: (§3) Soybean leaves on agar in 24-well microtiter plates were sprayed with aqueous test solutions prepared from 10,000 ppm DMSO stock solutions. After drying the leaves were infested with N2 nymphs. The samples were assessed for mortality 5 days after infestation.

[7] = tested on: Plutella xylostella (Diamond Back Moth); test: Example B12: Plutella xylostella, treated artificial diet, mortality; conditions: 120 h, application rate of 200 ppm, L2 larvae, 5 days after infestation
Protocol: (§4) 24-well microtiter plates with artificial diet were treated with aqueous test solutions prepared from 10,000 ppm DMSO stock solutions by pipetting. After drying, the plates were infested with L2 larvae (10 to 15 per well). The samples were assessed for mortality 5 days after infestation.

[8] = tested on: Plutella xylostella (Diamond Back Moth); test: Example B13: Plutella xylostella, treated artificial diet, mortality and growth inhibition; conditions: 120 h, application rate of 200 ppm, L2 larvae, 5 days after infestation, read-out: effect in at least one of the two categories (mortality or growth inhibition)
Protocol: as §4, with “mortality and growth inhibition in comparison to untreated samples” for “mortality”

[9] = tested on: Euschistus heros (Neotropical Brown Stink Bug); test: Example B6: Euschistus heros, sprayed soybean leaves, mortality and growth inhibition; conditions: 120 h, application rate of 200 ppm, N2 nymphs, 5 days after infestation, read-out: effect in at least one of the two categories (mortality or growth inhibition)
Protocol: as §3, with “mortality and growth inhibition in comparison to untreated samples” for “mortality”

[10] = tested on: Diabrotica balteata (Corn Root Worm); test: Example B2: Diabrotica balteata, sprayed maize sprouts, mortality and growth inhibition; conditions: 96 h, application rate of 200 ppm, L2 larvae, 4 days after infestation, read-out: effect in at least one of the two categories (mortality or growth inhibition)
Protocol: as §2, with “mortality and growth inhibition in comparison to untreated samples” for “mortality”

[11] = tested on: Spodoptera littoralis (Egyptian Cotton Leaf Worm); test: Example B20: Spodoptera littoralis, compound in agar absorbed by lettuce roots, mortality; conditions: 144 h, test rate of 12.5 ppm, uptake by lettuce roots, Spodoptera eggs, 6 days after infestation
Description: Test compounds were applied by pipette prepared from 10,000 ppm DMSO stock solutions into 24-well plates and mixed with agar. Lettuce seeds were placed onto the agar and the multi well plate was closed by another plate which contained also agar. After 7 days the compound was absorbed by the roots and the lettuce grew into the lid plate. The lettuce leaves were then cut off into the lid plate.
Spodoptera eggs were pipetted through a plastic stencil onto a humid gel blotting paper and the lid plate was closed with it. The samples were assessed for mortality 6 days after infestation.

[12] = tested on: Spodoptera littoralis (Egyptian Cotton Leaf Worm); test: Example B17: Spodoptera littoralis, sprayed cotton leaf discs, mortality, anti-feeding effect and growth inhibition; conditions: foliar, 72 h, application rate of 200 ppm, L1 larvae, 3 days after infestation, read-out: control (at least one of mortality, anti-feedant effect, growth inhibition)
Protocol: Cotton leaf discs were placed onto agar in 24-well microtiter plates and sprayed with aqueous test solutions prepared from 10,000 ppm DMSO stock solutions. After drying the leaf discs were infested with five L1 larvae. The samples were assessed for mortality, anti-feeding effect, and growth inhibition in comparison to untreated samples 3 days after infestation. Control of Spodoptera littoralis by a test sample is given when at least one of the categories mortality, anti-feedant effect, and growth inhibition is higher than the untreated sample.

[13] = tested on: Spodoptera littoralis (Egyptian Cotton Leaf Worm); test: Example B19: Spodoptera littoralis, compound in agar absorbed by lettuce roots, anti-feedant effect; conditions: 144 h, test rate of 12.5 ppm, uptake by lettuce roots, Spodoptera eggs, 6 days after infestation, read-out: anti-feeding
Description: Test compounds were applied by pipette prepared from 10,000 ppm DMSO stock solutions into 24-well plates and mixed with agar. Lettuce seeds were placed onto the agar and the multi well plate was closed by another plate which contained also agar. After 7 days the compound was absorbed by the roots and the lettuce grew into the lid plate. The lettuce leaves were then cut off into the lid plate. Spodoptera eggs were pipetted through a plastic stencil onto a humid gel blotting paper and the lid plate was closed with it. The samples were assessed for anti-feedant effect in comparison to untreated samples 6 days after infestation.

[14] = tested on: Frankliniella occidentalis (Western Flower Thrips); test: Example B7: Frankliniella occidentalis, sprayed sunflower leaf discs, mortality; conditions: foliar, 168 h, application rate of 200 ppm, population of mixed ages, 7 days after infestation
Protocol: as §1, with “Sunflower” for “Cotton”, “on” for “onto”, “10,000” for “10,000 ppm”, “a Frankliniella population of mixed ages.” for “five L1 larvae.”, “7” for “3”

[15] = tested on: Myzus persicae (Green Peach Aphid); test: Example B8: Myzus persicae, sprayed sunflower leaf discs, mortality; conditions: foliar, 144 h, application rate of 200 ppm, leaf disc spray, aphid population of mixed ages, 6 days after infestation
Protocol: Sunflower leaf discs were placed onto agar in a 24-well microtiter plate and sprayed with aqueous test solutions prepared from 10,000 ppm DMSO stock solutions. After drying, the leaf discs were infested with an aphid population of mixed ages. The samples were assessed for mortality 6 days after infestation.

[16] = tested on: Plutella xylostella (Diamond Back Moth); test: Example B10: Plutella xylostella, treated artificial diet, growth inhibition; conditions: 120 h, application rate of 200 ppm, L2 larvae, 5 days after infestation
Protocol: as §4, with “growth inhibition in comparison to untreated samples” for “mortality”, “infestation. Control of Plutella xylostella by a test sample is given when the growth inhibition is higher than the untreated sample.” for “infestation.”

CCS(=O)(=O)c1cc(-c2ccc(C(F)(F)F)cc2)cnc1-c1cn2cnc(C(F)(F)F)cc2n1 [Compound P6, 2-[3-ethylsulfonyl-5-[4-(trifluoromethyl)phenyl]-2-pyridyl]-7-(trifluoromethyl)imidazo[1,2-c]pyrimidine]
≥ 80%: mortality at 200 ppm [1] | pest or weed control at 200 ppm [2] | pest or weed control at 200 ppm [3] | mortality at 200 ppm [4] | percent effect (mortality, anti-feeding or growth inhibition) at 12.5 ppm [5] | mortality at 200 ppm [6] | mortality at 200 ppm [7] | percent effect (mortality or growth inhibition) at 200 ppm [8] | percent effect (mortality or growth inhibition) at 200 ppm [9] | percent effect (mortality or growth inhibition) at 200 ppm [10] | mortality at 12.5 ppm [11] | percent control (mortality, anti-feedant effect or growth inhibition) at 200 ppm [12] | pest or weed control at 12.5 ppm [13]

CCS(=O)(=O)c1cc(-c2ccc(Cl)cc2)ccc1-c1cn2cnc(C(F)(F)F)cc2n1 [Compound P3]
≥ 80%: mortality at 200 ppm [1] | pest or weed control at 200 ppm [2] | mortality at 200 ppm [4] | percent effect (mortality or growth inhibition) at 200 ppm [10] | percent control (mortality, anti-feedant effect or growth inhibition) at 200 ppm [12]

CCS(=O)(=O)c1cc(-c2ccc(F)cc2F)cnc1-c1cn2cnc(C(F)(F)F)cc2n1 [Compound P11]
≥ 80%: mortality at 200 ppm [1] | pest or weed control at 200 ppm [2] | mortality at 200 ppm [4] | percent effect (mortality, anti-feeding or growth inhibition) at 12.5 ppm [5] | mortality at 200 ppm [6] | mortality at 200 ppm [14] | mortality at 200 ppm [7] | percent effect (mortality or growth inhibition) at 200 ppm [8] | percent effect (mortality or growth inhibition) at 200 ppm [9] | percent effect (mortality or growth inhibition) at 200 ppm [10] | mortality at 12.5 ppm [11] | percent control (mortality, anti-feedant effect or growth inhibition) at 200 ppm [12] | mortality at 200 ppm [15] | pest or weed control at 12.5 ppm [13]

CCS(=O)(=O)c1cc(-c2ccc(C(F)(F)F)cc2)ccc1-c1cn2cnc(C(F)(F)F)cc2n1 [Compound P2, 2-[2-ethylsulfonyl-4-[4-(trifluoromethyl)phenyl]phenyl]-7-(trifluoromethyl)imidazo[1,2-c]pyrimidine]
≥ 80%: mortality at 200 ppm [1] | pest or weed control at 200 ppm [2] | pest or weed control at 200 ppm [3] | mortality at 200 ppm [4] | mortality at 200 ppm [7] | percent effect (mortality or growth inhibition) at 200 ppm [8] | percent effect (mortality or growth inhibition) at 200 ppm [10] | percent control (mortality, anti-feedant effect or growth inhibition) at 200 ppm [12]

CCS(=O)(=O)c1cc(-c2ccc(OC(F)(F)F)cc2)cnc1-c1cn2cnc(C(F)(F)F)cc2n1 [Compound P12]
≥ 80%: mortality at 200 ppm [1] | pest or weed control at 200 ppm [2] | pest or weed control at 200 ppm [3] | mortality at 200 ppm [4] | percent effect (mortality, anti-feeding or growth inhibition) at 12.5 ppm [5] | mortality at 200 ppm [6] | mortality at 200 ppm [7] | percent effect (mortality or growth inhibition) at 200 ppm [8] | percent effect (mortality or growth inhibition) at 200 ppm [9] | percent effect (mortality or growth inhibition) at 200 ppm [10] | mortality at 12.5 ppm [11] | percent control (mortality, anti-feedant effect or growth inhibition) at 200 ppm [12] | pest or weed control at 12.5 ppm [13]

CCS(=O)(=O)c1cc(-n2ccc(C(F)(F)F)n2)ccc1-c1cn2cnc(C(F)(F)F)cc2n1 [Compound P1, 2-[2-ethylsulfonyl-4-[3-(trifluoromethyl)pyrazol-1-yl]phenyl]-7-(trifluoromethyl)imidazo[1,2-c]pyrimidine]
≥ 80%: mortality at 200 ppm [1] | pest or weed control at 200 ppm [2] | pest or weed control at 200 ppm [3] | mortality at 200 ppm [4] | inhibition at 200 ppm [16] | percent effect (mortality, anti-feeding or growth inhibition) at 12.5 ppm [5] | mortality at 200 ppm [6] | mortality at 200 ppm [7] | percent effect (mortality or growth inhibition) at 200 ppm [8] | percent effect (mortality or growth inhibition) at 200 ppm [9] | percent effect (mortality or growth inhibition) at 200 ppm [10] | mortality at 12.5 ppm [11] | percent control (mortality, anti-feedant effect or growth inhibition) at 200 ppm [12] | mortality at 200 ppm [15] | pest or weed control at 12.5 ppm [13]
